The results in this text go back to patent US9868748B2, “Thiazolopyrrolidine inhibitors of ROR- γ” (Vitae Pharmaceuticals, Inc., priority 2013, dated 2018).

In the experiment the target is recombinant RORγ Ligand Binding Domain (LBD) protein (Homo sapiens (Human), UniProt P51449). Nature of the experiment: Radio-Ligand RORγ Binding Assay (Assay 1). The conditions noted are these: competition with 25-hydroxy [26,27-3H]-cholesterol, SPA; Table 9; read-out: RORγ Binding Ki Range*. As for the experimental part: Radio-Ligand RORγ Binding Assay (Assay 1)
Sequence of recombinant RORγ Ligand Binding Domain (LBD) protein (P51449 269-508): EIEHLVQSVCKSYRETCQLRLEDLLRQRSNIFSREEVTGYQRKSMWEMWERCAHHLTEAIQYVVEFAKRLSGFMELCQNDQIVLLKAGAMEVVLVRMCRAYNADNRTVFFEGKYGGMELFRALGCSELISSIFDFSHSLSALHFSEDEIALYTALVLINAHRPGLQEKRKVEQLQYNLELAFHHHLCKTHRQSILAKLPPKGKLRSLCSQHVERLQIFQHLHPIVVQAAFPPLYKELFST
Compounds of the present invention were tested for ability to bind to RORγ in a cell-free competition assay with commercially available radio-ligand (RL), 25-hydroxy [26,27-^3H]— cholesterol (PerkinElmer, Cat. # NET674250UC), for a ligand binding site on a recombinant RORγ Ligand Binding Domain (LBD) protein expressed as a 6×His-Glutathione-S-Transferase (GST) fusion (“6×His” disclosed as SEQ ID NO: 2). The assay was performed in 96-well SPA plates (PerkinElmer, Cat. #1450-401) in 50 mM HEPES buffer, pH 7.4, containing 150 mM NaCl, 5 mM MgCl2, 10% (v/v) glycerol, 2 mM CHAPS, 0.5 mM β-octylglucopyranoside and 5 mM DTT. Tested compounds were dissolved in DMSO, and semi-log (3.162×) serial dilutions of the compounds were prepared in the same solvent. Two μL of the DMSO solutions were mixed with 28 μL of 8.6 nM 25-hydroxy [26,27-^3H]— cholesterol and 50 μL of 24 nM RORγ LBD. The plate was shaken at 700 rpm for 20 min and incubated for 10 min at rt, after which 40 μL of poly-Lys YSi SPA beads (PerkinElmer, Cat. # RPNQ0010) were added to achieve 50 μg of the beads per well. The plate was incubated on an orbital shaker for 20 min and then for 10 min without agitation at rt. SPA signal for tritium beta radiation was registered on PerkinElmer Microbeta plate reader. Percent inhibition values were calculated based on the high signal obtained with DMSO control and the low signal observed with 10 μM standard RORγ inverse agonist T0901317 (SigmaAldrich, Cat. # T2320). The percent inhibition vs. concentration data were fit into a four-parameter model, and […] values were calculated from the fit as the concentrations corresponding to the inflection points on the dose-response curves. Inhibitory constants (Ki) were calculated using the following equation, where [RL] is the concentration in the assay and KD is a dissociation constant of 25-hydroxy [26,27-^3H]-cholesterol: […]
For `CCS(=O)(=O)c1ccc(CC(=O)Nc2nc3c(s2)CN(CC2CCC(F)(F)CC2)[C@H]3C(C)C)cc1`, the inhibitory constant (Ki) was less than 100 nM.
As for `Cc1nnc(-c2ccc(CC(=O)Nc3nc4c(s3)CN(Cc3ccc(Cl)cc3)[C@H]4C(C)C)cc2)o1`, the inhibitory constant (Ki) lay within 100 to 1000 nM.
For `CCS(=O)(=O)c1ccc(CC(=O)Nc2nc3c(s2)CN(c2ncc(-c4ccc(=O)n(C)c4)cn2)[C@H]3C(C)C)cc1`, the Ki was greater than 1000 nM.
For the compound `CC(C)[C@H]1c2nc(NC(=O)Cc3ccn4ccnc4c3)sc2CN1Cc1ccc(C(F)(F)F)cc1`, the Ki lay within 100 to 1000 nM.
Consider `CCS(=O)(=O)c1ccc(CC(=O)Nc2nc3c(s2)CN(c2ncc(-c4ccc(=O)n(C)c4)s2)[C@H]3C(C)C)nc1`, for which the Ki was greater than 1000 nM.
Regarding `CCS(=O)(=O)c1ccc(CC(=O)Nc2nc3c(s2)CN(CC2CCNC(=O)C2)[C@H]3C(C)C)cc1` (stereo partly drawn), the Ki was in the range of 100 to 1000 nM.
Take `CCS(=O)(=O)c1ccc(CNC(=O)c2nc3c(s2)CN(Cc2ccc(-c4nnn[nH]4)cc2)[C@H]3C(C)C)cc1`: the inhibition constant (Ki) was 100 to 1000 nM.
The same measure for `CCS(=O)(=O)c1ccc(CNC(=O)c2nc3c(s2)CN(Cc2ccn(C(F)F)c(=O)c2)[C@H]3C(C)C)cc1`: 100 to 1000 nM.
In the case of `CC(C)[C@H]1c2nc(NC(=O)Cc3ccc(S(C)(=O)=O)cc3)sc2CN1Cc1ccn(C2CC2)c(=O)c1` it was 100 to 1000 nM; in that of `CCS(=O)(=O)c1ccc(CC(=O)Nc2nc3c(s2)CN(Cc2ccc(C(F)(F)F)cc2)[C@@]3(C)C(C)C)cc1`, 100 to 1000 nM.
Consider `CCS(=O)(=O)c1ccc(CC(=O)Nc2nc3c(s2)CN(C[C@H]2CC[C@H](C(=O)O)CC2)[C@H]3C(C)C)cc1`, for which the Ki is 100 to 1000 nM.
Regarding `CC(C)[C@H]1c2nc(NC(=O)Cc3ccc(S(C)(=O)=O)cc3)sc2CN1Cc1ccc(=O)n(C(F)F)n1`, the Ki is greater than 1000 nM.
As for `Cc1ccc(CN2Cc3sc(NC(=O)Cc4ccc(S(C)(=O)=O)cc4)nc3[C@@H]2C(C)C)nn1`, the Ki was 100 to 1000 nM.
In the case of `CCS(=O)(=O)c1ccc(CC(=O)Nc2nc3c(s2)CN(c2ncc(CO)c(C(F)(F)F)n2)[C@H]3C(C)C)cc1` it was 100 to 1000 nM; in that of `CCS(=O)(=O)c1ccc(CC(=O)Nc2nc3c(s2)CN(Cc2cc[n+]([O-])cc2)[C@H]3C(C)C)cc1`, 100 to 1000 nM.
In the case of `COc1cc(CN2Cc3sc(NC(=O)Cc4ccc(C#N)cc4)nc3[C@@H]2C(C)C)ccc1C#N` it was less than 100 nM; in that of `CC(C)[C@H]1c2nc(NC(=O)Cc3ccc(S(C)(=O)=O)cc3F)sc2CN1Cc1cnc(C(F)(F)F)nc1`, 100 to 1000 nM; in that of `CCS(=O)(=O)c1cnc(CC(=O)Nc2nc3c(s2)CN(Cc2ccc(C(F)(F)F)cc2)[C@@H]3C(C)C)nc1`, greater than 1000 nM.
The same measure for `CCS(=O)(=O)c1cnc(CC(=O)Nc2nc3c(s2)CN(Cc2ccc(C#N)cc2)[C@@H]3C(C)C)nc1`: greater than 1000 nM; for `CCS(=O)(=O)c1ccc(CC(=O)Nc2nc3c(s2)CN(Cc2cnc(N)nc2)[C@H]3C(C)C)cc1`: 100 to 1000 nM.
`CC[C@H]1c2nc(NC(=O)Cc3ccc(C(=O)OC)cc3)sc2CN1Cc1ccc(Cl)cc1`: the Ki was in the range of 100 to 1000 nM.
Take `CC(C)[C@H]1c2nc(C(=O)NCc3ccc(S(C)(=O)=O)cc3)sc2CN1Cc1ccn(C)c(=O)c1`: the Ki was greater than 1000 nM.
The same measure for `CC(C)[C@H]1c2nc(NC(=O)CC3CCS(=O)(=O)CC3)sc2CN1Cc1ccc(Cl)cc1`: 100 to 1000 nM.
As to `CCS(=O)(=O)c1ccc(CNC(=O)c2nc3c(s2)CN(CC2CNCCO2)[C@H]3C(C)C)cc1` (stereo partly drawn), the Ki is greater than 1000 nM.
The same measure for `CC(C)[C@H]1c2nc(C(=O)NCc3ccc(S(C)(=O)=O)cc3)sc2CN1Cc1ccc2nn[nH]c2c1`: 100 to 1000 nM; for `Cc1ncc(CN2Cc3sc(NC(=O)Cc4ccc(S(C)(=O)=O)cc4)nc3[C@@H]2C(C)C)cn1`: 100 to 1000 nM.
`CC(C)[C@H]1c2nc(C(=O)NCc3ccc(S(C)(=O)=O)cc3)sc2CN1Cc1ncc(Cl)cn1`: the Ki was in the range of 100 to 1000 nM.
Take `CCOC(=O)c1cnc(N2Cc3sc(NC(=O)Cc4ccc(S(=O)(=O)CC)cc4)nc3C2(C)C)nc1C(F)(F)F`: the inhibition constant (Ki) was 100 to 1000 nM.
In the case of `CC(C)[C@H]1c2nc(C(=O)NCc3ccc(S(C)(=O)=O)cc3)sc2CN1Cc1cnc(C(F)(F)F)nc1` it was 100 to 1000 nM; in that of `CCS(=O)(=O)c1ccc(CC(=O)Nc2nc3c(s2)CN(Cc2ccc(S(C)(=O)=O)cc2)C3(C)C)cc1`, greater than 1000 nM; in that of `CC1(C)c2nc(NC(=O)Cc3ccc(S(C)(=O)=O)cc3)sc2CN1c1ncc(C(F)(F)F)cn1`, 100 to 1000 nM.
For the compound `CCS(=O)(=O)c1ccc(CNC(=O)c2nc3c(s2)CN(c2ncc(CO)c(C(F)(F)F)n2)[C@H]3C(C)C)cc1`, the Ki was greater than 1000 nM.
For the compound `CCS(=O)(=O)c1ccc(CNC(=O)c2nc3c(s2)CN(c2ncc(C(F)(F)F)cn2)[C@H]3C(C)C)cc1`, the inhibitory constant (Ki) is greater than 1000 nM.
For the compound `CCOC(=O)c1cnc(N2Cc3sc(C(=O)NCc4ccc(S(=O)(=O)CC)cc4)nc3[C@@H]2C(C)C)nc1C(F)(F)F`, the Ki was greater than 1000 nM.
The same measure for `CCS(=O)(=O)c1ccc(CNC(=O)c2nc3c(s2)CN(c2nccc(C(F)(F)F)n2)[C@H]3C(C)C)cc1`: 100 to 1000 nM.
Turning to `CCS(=O)(=O)c1ccc(CC(=O)Nc2nc3c(s2)CN(c2ncc(C(F)(F)F)cn2)C3(C)C)cc1`, the Ki fell in the range of 100 to 1000 nM.
Regarding `CC(C)[C@H]1c2nc(NC(=O)Cc3ccc(S(C)(=O)=O)cc3)sc2CN1Cc1ncc(Cl)cn1`, the Ki fell in the range of 100 to 1000 nM.
The same measure for `CC(C)[C@H]1c2nc(C(=O)NCc3ccc(S(C)(=O)=O)cc3)sc2CN1Cc1ccc(C#N)cn1`: 100 to 1000 nM; for `CC(C)[C@H]1c2nc(NC(=O)Cc3ccc(S(C)(=O)=O)cc3)sc2CN1Cc1ncc(Cl)cc1F`: 100 to 1000 nM; for `CCOC(=O)c1cnc(N2Cc3sc(NC(=O)Cc4ccc(S(C)(=O)=O)cc4)nc3[C@@H]2C(C)C)nc1C(F)(F)F`: 100 to 1000 nM.
The same measure for `CC(C)[C@H]1c2nc(NC(=O)Cc3ccc(S(C)(=O)=O)cc3)sc2CN1c1nc(Cl)ncc1C#N`: 100 to 1000 nM; for `CC(C)[C@H]1c2nc(NC(=O)Cc3ccc(S(C)(=O)=O)cc3)sc2CN1c1ncc(C#N)c(Cl)n1`: 100 to 1000 nM.
The same measure for `COC(=O)c1cnc(N2Cc3sc(NC(=O)Cc4ccc(S(C)(=O)=O)cc4)nc3[C@@H]2C(C)C)nc1`: greater than 1000 nM; for `CC(C)[C@H]1c2nc(NC(=O)Cc3ccc(F)cc3F)sc2CN1Cc1ccc(Cl)cc1`: 100 to 1000 nM.
As to `CC[C@@H]1c2nc(NC(=O)Cc3ccc(S(C)(=O)=O)cc3)sc2CN1Cc1ccc(OC(F)(F)F)nc1`, the Ki is 100 to 1000 nM.
In the case of `CC[C@@H]1c2nc(NC(=O)Cc3ccc(S(=O)(=O)CC)cc3)sc2CN1Cc1ccc(F)cn1` it was 100 to 1000 nM; in that of `CC[C@@H]1c2nc(NC(=O)Cc3ccc(S(C)(=O)=O)cc3)sc2CN1Cc1ccc(OC(F)(F)F)cc1F`, 100 to 1000 nM.
In the case of `CC(C)[C@@H]1c2nc(NC(=O)Cc3ccc(S(C)(=O)=O)cc3)sc2CN1Cc1ccc(Br)cc1` it was 100 to 1000 nM; in that of `CCS(=O)(=O)c1ccc(CC(=O)Nc2nc3c(s2)CN([C@@H](C)Cc2ccccc2)[C@@H]3C(C)C)cc1`, 100 to 1000 nM.
The same measure for `CCS(=O)(=O)c1ccc(CC(=O)Nc2nc3c(s2)CN(Cc2nccc(C(F)(F)F)n2)[C@@H]3C(C)C)cc1`: 100 to 1000 nM; for `CCS(=O)(=O)c1ccc(CC(=O)Nc2nc3c(s2)CN(Cc2ccc(C#N)cn2)[C@@H]3C(C)C)cc1`: 100 to 1000 nM; for `COC(=O)c1coc(CN2Cc3sc(NC(=O)Cc4ccc(S(C)(=O)=O)cc4)nc3[C@H]2C(C)C)n1`: greater than 1000 nM.
In the case of `CC(C)[C@@H]1c2nc(NC(=O)Cc3ccc(S(C)(=O)=O)cc3)sc2CN1C(C)c1ccc(C#N)cc1` (stereo partly drawn), the inhibitory constant (Ki) was in the range of 100 to 1000 nM.
With `Cc1ccc(CN2Cc3sc(NC(=O)Cc4ccc(S(C)(=O)=O)cc4)nc3[C@H]2C(C)C)cc1`, the Ki fell in the range of 100 to 1000 nM.
Take `CCS(=O)(=O)c1ccc(CC(=O)Nc2nc3c(s2)CN(C(=O)Cc2ccccc2)[C@@H]3C(C)C)cc1`: the inhibition constant (Ki) is 100 to 1000 nM.
The same measure for `CC(C)[C@@H]1c2nc(NC(=O)Cc3ccc(S(C)(=O)=O)cc3)sc2CN1Cc1ccc(C#N)cc1`: 100 to 1000 nM; for `CCS(=O)(=O)c1ccc(CC(=O)Nc2nc3c(s2)CN(Cc2ccc(C(F)(F)F)nc2)[C@@H]3C(C)C)cc1`: 100 to 1000 nM; for `CCS(=O)(=O)c1ccc(CC(=O)Nc2nc3c(s2)CN(CC2CCOCC2)[C@@H]3C(C)C)cc1`: 100 to 1000 nM.
The same measure for `CCS(=O)(=O)c1ccc(CC(=O)Nc2nc3c(s2)CN(Cc2ccc(S(C)(=O)=O)cc2)[C@@H]3C(C)C)cc1`: 100 to 1000 nM; for `Cc1cc(C(F)(F)F)nc(N2Cc3sc(-c4ccc(C(F)(F)F)nc4)nc3[C@H]2C(C)C)n1`: greater than 1000 nM.
With `Cc1cc(C(F)(F)F)nc(N2Cc3sc(Cc4ccc(-c5nn[nH]n5)cc4C)nc3[C@H]2C(C)C)n1`, the Ki lay within 100 to 1000 nM.
Take `Cc1cc(C(F)(F)F)nc(N2Cc3sc(Cc4ccc(C#N)cc4C)nc3[C@H]2C(C)C)n1`: the Ki is greater than 1000 nM.
In the case of `CCS(=O)(=O)c1ccc(CC(=O)Nc2nc3c(s2)CN(C[C@H]2C[C@H](C(N)=O)C2)[C@H]3C(C)C)cc1` (relative stereo) it was 100 to 1000 nM.
